Test results reported in patent publication US20170267560A1, “TABLETS FOR TREATING AND DISINFECTING WATER” (ERCROS, S.A., priority 2014, published 2017).

Assay: Thermogravimetric analysis of the quantity of additive encapsulated in microporous or mesoporous material
Settings: for % Encapsulated (g additive/g solid total) × 100: encapsulated in silica by impregnation (Example 1)
[1] = MIL-53 MOF, two steps, 60° C., encapsulation time 1 day
[2] = MIL-53 MOF, two steps, 60° C., encapsulation time 2 days
[3] = MIL-53 MOF, two steps, 60° C., encapsulation time 4 days
[4] = MIL-53 MOF, two steps, 60° C., encapsulation time 7 days
[5] = MIL-88 A (Al) MOF, in-situ encapsulation in one single step (Example 4)
[6] = MIL-88 A (Al) MOF, two steps, encapsulation time 3 days

| % Encapsulated (g additive/g dry solid) × 100 [1] [%] | % Encapsulated (g additive/g dry solid) × 100 [2] [%] | % Encapsulated (g additive/g dry solid) × 100 [3] [%] | % Encapsulated (g additive/g dry solid) × 100 [4] [%] | % Encapsulated (g additive/g dry solid) × 100 [5] [%] | % Encapsulated (g additive/g dry solid) × 100 [6] [%] | % Encapsulated (g additive/g solid total) × 100 [%] | Compound |
| --- | --- | --- | --- | --- | --- | --- | --- |
| 26.0 | 22.1 | 26.1 | 25.2 | 21.7 | 21.0 | 58.7 | CCCCN(CCC(=O)OCC)C(C)=O [IR3535, ethyl 3-[acetyl(butyl)amino]propanoate] |
| 22.1 | 32.0 | 29.1 | 36.7 | 10.9 | 11.3 | 55.0 | CC(C)=CCC/C(C)=C/CO [Geraniol, geraniol] |
| 17.2 | 33.4 | 35.3 | 44.0 | 13.4 | 10.6 | 55.7 | CC(C)=CCC/C(C)=C/C(=O)O [Geranic acid, geranic acid] |
| 19.2 | 22.5 | 25 | 25.1 | 12.2 | 8.9 | 56.9 | CC(C)=CCCC(C)CC(=O)O (stereo not shown) [Citronellic acid, citronellic acid] |
